In article PMC5995184, “Potent anti-leukemic activity of a specific cyclin-dependent kinase 9 inhibitor in mouse models of chronic lymphocytic leukemia” (Oncotarget, 2018):
Like-named read-outs stand apart in the source and are kept apart here.

What was measured:
[1] = test system: panel of 219 recombinant kinases; assay: Broad in vitro selectivity kinase profiling; format: biochemical; conditions: 1 μM LDC526, 219 kinases
Protocol: IC50 values for CDK inhibitors were determined using the fluorescence resonance energy transfer (FRET)-based LANCE Ultra KinaSelect Ser/Thr kit (Perkin Elmer). Kinase activity and inhibition were measured according to the manufacturer’s instructions and as previously described. […] Subsequently, phosporylation was detected by addition of specific europium (Eu)-labeled anti-phospho-antibodies (2 nM), which upon binding to the phospho-peptide give rise to a FRET signal. FRET signals were recorded in a time-resolved manner in a Perkin Elmer EnVision reader. Purified cyclin-kinase pairs were obtained from the following suppliers: Carna Biosciences (CDK1-Cyclin B1, CDK6-Cyclin D3, CDK7-Cyclin H-MAT1), ProQinase (CDK2-Cyclin A) and Invitrogen (CDK9-Cyclin T1). Broad selectivity kinase in vitro profiling with LDC526 was carried out using n=219 recombinant kinases (Millipore/Merck, Darmstadt, Germany).

[2] = test system: non-malignant normal donor B cells; assay: Normal donor B cell viability (Annexin V/DAPI, absolute counts); format: cell-based; conditions: Homo sapiens, read-out: IC50, viable non-malignant B cells
Protocol: The MEC-1 cell line was obtained from the DSMZ (Braunschweig, Germany) and was cultured in RPMI (10% fetal bovine serum). A LDC526 stock solution was prepared with DMSO, diluted and added to the cultures to reach the specified concentrations. Samples (percentage of CD19+CD5+ CLL cells >90%) of n=37 CLL patients (Table 1) and n=6 healthy normal donor controls were used for experiments after obtaining informed consent according to institutional guidelines, approved by the Ethics Commission of the University of Essen-Duisburg. Peripheral blood mononuclear cells (PBMC) were isolated using Lymphoprep ([…] Technologies, Cologne, Germany) density gradient centrifugation and were used directly for NSG transplantation or in vitro experiments. Untouched normal donor B cells were isolated with a B cell isolation kit (Miltenyi, Bergisch Gladbach, Germany) according to the manufacturer’s instructions. […]
Apoptosis and cell death were determined by using Annexin V (BD Biosciences, Heidelberg, Germany) and 4′,6-Diamidin-2-phenylindol (DAPI, Sigma-Aldrich) staining. […] Flow cytometric data were analyzed with BD FACSDiva or FlowJo software (FLOWJO, LLC, Ashland, OR, USA). […]
Data were analyzed with GraphPad Prism 7 software. Differences were assessed by unpaired or paired Student t tests if not indicated otherwise. […]

## COc1cc(F)ccc1-c1ncnc(Nc2cccc(CS(N)(=O)=O)c2)n1 [LDC526, (3-((4-(4-fluoro-2-methoxyphenyl)-1,3,5-triazin-2-yl)amino)phenyl)methane-sulfonamide]
[1]
  share of tested kinases still displaying an activity of greater than 80%: More than 85%
[2]; 24 hours incubation
  IC50: 900 nM
[2]; 48 hours incubation
  IC50: 1480 nM
